Data set [1] is described as follows: solubility in buffer solution. Conditions: pH 7.5, aqueous buffer. The data set is classed as physicochemical. The method, then: Said solubilities are given in g. of rifamycin % ml. of buffer solution (pH=7,5 and t=22° C.). DA means desacetyl.
A short description of the next data set: in vivo. As to conditions: mouse.

SMILES strings stand for the structures. ≈ marks a conversion by molar mass, not a printed value. Read-outs that look alike come from different tables or passages of the source.

`COC1C=COC2(C)Oc3c(C)c(O)c4c(O)c(c(C=NN5CCN(C)CC5)c(O)c4c3C2=O)NC(=O)C(C)=CC=CC(C)C(O)C(C)C(O)C(C)C(O)C1C` (stereo not shown) [25-DA-3-(4-methyl-piperazinyl-iminomethyl)-rifamycin SV] registered a solubility in data set [1] (buffer) of 7600 µg/mL (≈ 9730 µM). The LD50 in the data set “in vivo” (ip, acute toxicity, mice) came to 850 mg/kg.

On to `CCN(CC)Cc1c2c(O)c3c(O)c(C)c4c(c3c1O)C(=O)C(C)(OC=CC(OC)C(C)C(OC(C)=O)C(C)C(O)C(C)C(O)C(C)C=CC=C(C)C(=O)N2)O4` (stereo not shown) [3-diethylaminomethyl-rifamycin SV, reference compound], for which the concentration in solution in data set [1] (buffer) (solubility) was 420 µg/mL (≈ 536 µM). Turning to `COC1C=COC2(C)Oc3c(C)c(O)c4c(O)c(c(C=NN5CCN(C)CC5)c(O)c4c3C2=O)NC(=O)C(C)=CC=CC(C)C(O)C(C)C(O)C(C)C(OC(C)=O)C1C` (stereo not shown) [3-(4-methyl-piperazinyl-iminomethyl)-rifamycin SV, reference compound], the solubility in data set [1] (buffer solution, pH = 7,5, 22° C., read-out: Solubility) was 2850 µg/mL (≈ 3460 µM). The same molecule gave an LD50 in the data set “in vivo” (ip, acute toxicity, mice) of 460 mg/kg. Molecule `CON=Cc1c2c(O)c3c(O)c(C)c4c(c3c1O)C(=O)C(C)(OC=CC(OC)C(C)C(O)C(C)C(O)C(C)C(O)C(C)C=CC=C(C)C(=O)N2)O4` (stereo not shown) [25-DA-3-methoximinomethyl-rifamycin SV] had a solubility in data set [1] (buffer) of 340 µg/mL (≈ 477 µM). The LD50 in the data set “in vivo” (ip, acute toxicity, mice) was determined as 560 mg/kg.

In “in vivo” (iv), `CCN(CC)C(=O)COc1cc2c(O)c3c(O)c(C)c4c(c13)C(=O)C(C)(OC=CC(OC)C(C)C(O)C(C)C(O)C(C)C(O)C(C)C=CC=C(C)C(=O)N2)O4` (stereo not shown) [25-DA-rifamycin B diethylamide] yielded an LD50 of 600 mg/kg. `CCN(CC)Cc1c2c(O)c3c(O)c(C)c4c(c3c1O)C(=O)C(C)(OC=CC(OC)C(C)C(O)C(C)C(O)C(C)C(O)C(C)C=CC=C(C)C(=O)N2)O4` (stereo not shown) [25-DA-3-diethylaminomethyl-rifamycin SV, 25-desacetyl-3-diethylaminomethyl-rifamycin SV] had a solubility in data set [1] (buffer) of 1260 µg/mL (≈ 1700 µM).

In the case of `COC1C=COC2(C)Oc3c(C)c(O)c4c(O)c(c(CN5CCCC5)c(O)c4c3C2=O)NC(=O)C(C)=CC=CC(C)C(O)C(C)C(O)C(C)C(OC(C)=O)C1C` (stereo not shown) [3-pyrrolidino-methyl-rifamycin SV, reference compound], the solubility in data set [1] (buffer) stood at 60 µg/mL (≈ 76.8 µM). On to `COC1C=COC2(C)Oc3c(C)c(O)c4c(O)c(c(C=O)c(O)c4c3C2=O)NC(=O)C(C)=CC=CC(C)C(O)C(C)C(O)C(C)C(O)C1C` (stereo not shown) [25-DA-3-formyl-rifamycin SV], for which, in data set [1] (buffer), the solubility amounted to 34300 µg/mL (≈ 50200 µM). Also, in “in vivo” (ip, acute toxicity, mice), the median lethal dose (LD50) is 550 mg/kg. In data set [1] (buffer), `COC1C=COC2(C)Oc3c(C)c(O)c4c(O)c(c(CN5CCCC5)c(O)c4c3C2=O)NC(=O)C(C)=CC=CC(C)C(O)C(C)C(O)C(C)C(O)C1C` (stereo not shown) [25-DA-3-pyrrolidino-methyl-rifamycin SV] came in with a solubility of 2800 µg/mL (≈ 3790 µM).

The molecule `CON=Cc1c2c(O)c3c(O)c(C)c4c(c3c1O)C(=O)C(C)(OC=CC(OC)C(C)C(OC(C)=O)C(C)C(O)C(C)C(O)C(C)C=CC=C(C)C(=O)N2)O4` (stereo not shown) [3-methoximinomethyl-rifamycin SV, reference compound] returned a solubility in data set [1] (buffer) of 150 µg/mL (≈ 199 µM). Consider `COC1C=COC2(C)Oc3c(C)c(O)c4c(O)c(c(C=O)c(O)c4c3C2=O)NC(=O)C(C)=CC=CC(C)C(O)C(C)C(O)C(C)C(OC(C)=O)C1C` (stereo not shown) [3-formyl-rifamycin SV, reference compound], for which the concentration in solution in data set [1] (buffer) (solubility) was 6400 µg/mL (≈ 8820 µM). This molecule yielded an LD50 in “in vivo” (ip, acute toxicity, mice) of 300 mg/kg.

A word on the solubility: it is how much of the substance goes into solution per volume. By LD50 is commonly meant the dose at which mortality reaches 50%. High values mean lower toxicity, low ones greater toxicity.

These data come from patent US4188321A, “25-Desacetyl rifamycins” (Gruppo Lepetit S.p.A., priority 1966, dated 1980).
